Assay results taken from patent US12509431B2, “1,4-dihydroquinazolinone compounds and uses thereof” (Edgewise Therapeutics, Inc., priority 2022, dated 2025).

Experiments:
Format in all cases: biochemical
[1] = system: Rabbit Skeletal myofibrils (rabbit psoas muscle); test: Myofibril ATPase assay (PK/LDH NADH-coupled), skeletal myofibrils
Procedure, shortened: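 Rabbit psoas myofibrils in pCa (PIPES/CaCl2/EGTA, pH 7.0) buffer; ADP coupled via PK/LDH to NADH loss, read at 340 nm every 1.5–2 min for 75 min. Slopes normalized to vehicle (100%) and fit to 4-parameter logistic for EC25, plus EC50 for inhibitors.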

[2] = biological target: T1, Porcine Ventricle myofibrils (left ventricle of Yucatan minipigs) (Sus scrofa, UniProt P79293); test: Myofibril ATPase assay (PK/LDH NADH-coupled), ventricle myofibrils
T1 construct: Myofibrils from porcine cardiac muscle was isolated from the left ventricle of Yucatan minipigs; tissue Exemplar Genetics; host or cells: left ventricle of Yucatan minipigs
T1 sequence (P79293 whole entry): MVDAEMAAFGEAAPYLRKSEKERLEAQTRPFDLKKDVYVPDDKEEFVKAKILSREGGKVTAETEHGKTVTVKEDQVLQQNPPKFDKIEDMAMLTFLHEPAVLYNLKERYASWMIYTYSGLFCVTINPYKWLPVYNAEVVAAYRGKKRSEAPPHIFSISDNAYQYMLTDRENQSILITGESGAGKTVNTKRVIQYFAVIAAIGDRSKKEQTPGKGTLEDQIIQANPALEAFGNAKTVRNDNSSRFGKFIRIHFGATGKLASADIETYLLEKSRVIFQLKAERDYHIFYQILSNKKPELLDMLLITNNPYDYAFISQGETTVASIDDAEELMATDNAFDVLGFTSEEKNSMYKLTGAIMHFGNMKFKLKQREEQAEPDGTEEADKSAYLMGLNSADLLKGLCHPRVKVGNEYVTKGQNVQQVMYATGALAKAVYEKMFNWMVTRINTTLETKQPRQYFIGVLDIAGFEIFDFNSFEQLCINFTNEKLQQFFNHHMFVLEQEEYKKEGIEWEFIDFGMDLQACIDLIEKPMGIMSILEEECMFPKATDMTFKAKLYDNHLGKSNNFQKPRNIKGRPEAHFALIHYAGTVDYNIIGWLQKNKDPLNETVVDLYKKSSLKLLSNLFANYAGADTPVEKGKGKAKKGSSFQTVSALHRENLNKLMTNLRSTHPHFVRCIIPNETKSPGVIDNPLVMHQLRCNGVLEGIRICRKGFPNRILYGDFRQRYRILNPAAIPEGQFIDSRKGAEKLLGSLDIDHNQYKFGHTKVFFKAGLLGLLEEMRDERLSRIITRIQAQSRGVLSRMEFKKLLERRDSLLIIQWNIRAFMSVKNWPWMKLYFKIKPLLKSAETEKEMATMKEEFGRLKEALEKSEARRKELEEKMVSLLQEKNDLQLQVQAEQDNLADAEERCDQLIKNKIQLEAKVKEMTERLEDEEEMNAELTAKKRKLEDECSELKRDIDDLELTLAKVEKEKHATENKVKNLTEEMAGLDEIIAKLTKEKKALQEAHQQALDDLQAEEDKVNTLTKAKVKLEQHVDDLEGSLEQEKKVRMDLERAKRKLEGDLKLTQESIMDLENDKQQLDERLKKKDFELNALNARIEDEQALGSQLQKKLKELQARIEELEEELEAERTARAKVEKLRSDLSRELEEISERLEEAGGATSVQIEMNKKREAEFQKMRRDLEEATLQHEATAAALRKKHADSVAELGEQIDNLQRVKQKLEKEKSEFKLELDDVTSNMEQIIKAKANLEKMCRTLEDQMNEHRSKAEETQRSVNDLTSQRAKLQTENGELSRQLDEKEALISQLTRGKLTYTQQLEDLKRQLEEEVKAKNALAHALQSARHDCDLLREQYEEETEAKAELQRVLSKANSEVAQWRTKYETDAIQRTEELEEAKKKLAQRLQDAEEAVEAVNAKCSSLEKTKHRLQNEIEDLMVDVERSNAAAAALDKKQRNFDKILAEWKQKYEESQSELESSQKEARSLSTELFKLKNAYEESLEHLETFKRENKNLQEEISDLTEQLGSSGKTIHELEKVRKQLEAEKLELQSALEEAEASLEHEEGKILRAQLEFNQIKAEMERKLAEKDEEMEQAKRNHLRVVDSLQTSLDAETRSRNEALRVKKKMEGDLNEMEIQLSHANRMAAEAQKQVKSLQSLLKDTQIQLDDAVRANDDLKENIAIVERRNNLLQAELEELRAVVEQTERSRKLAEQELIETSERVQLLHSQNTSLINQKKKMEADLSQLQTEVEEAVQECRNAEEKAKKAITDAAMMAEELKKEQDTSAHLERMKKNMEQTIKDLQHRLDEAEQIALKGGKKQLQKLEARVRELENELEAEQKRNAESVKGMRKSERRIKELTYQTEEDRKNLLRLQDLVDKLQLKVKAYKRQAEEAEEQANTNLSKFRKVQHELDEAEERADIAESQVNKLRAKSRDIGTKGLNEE
Procedure, shortened: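 Yucatan minipig left-ventricle myofibrils; ATPase measured by PK/LDH-coupled NADH loss at 340 nm, read every 1.5-2 min for 75 min. Slopes normalized to vehicle (100%) and fit to 4-parameter logistic model; EC25 and, for inhibitors, EC50 calculated.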

[3] = system: Porcine Atria myofibrils; test: Myofibril ATPase assay (PK/LDH NADH-coupled), atria myofibrils
Procedure, shortened: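 Porcine atrial myofibril ATPase followed via PK/LDH-coupled NADH depletion, absorbance at 340 nm read every 1.5-2 min over 75 min. Slopes (mAU/min) normalized to vehicle as 100% and fit to a 4-parameter logistic; EC25% derived, plus EC50% for inhibitors.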

SMILES | Rabbit Psoas IC25 ([1]; Table 8) | Porcine Ventricle IC25 ([2]; Table 8) | Porcine Atria IC25 ([3]; Table 8) | Rabbit Psoas IC25 ([1]; Table 7) | Porcine Ventricle IC25 ([2]; Table 7) | Porcine Atria IC25 ([3]; Table 7)
Cc1nc([C@H](C)NC(=O)CN2Cc3c(ccc(F)c3F)NC2=O)ncc1C#N [Compound B353] | 2.49 µM | 2.24 µM | 1.99 µM |  |  | 
Cc1nc(C#N)cnc1[C@@H](CO)NC(=O)CN1Cc2c(ccc(F)c2F)NC1=O [Compound B354] | 68.36 µM | 3.83 µM | 0.21 µM |  |  | 
Cc1nc(C#N)cnc1[C@H](CO)NC(=O)CN1Cc2c(ccc(F)c2F)NC1=O [Compound B355] | 0.07 µM | 0.14 µM | 0.05 µM |  |  | 
C[C@H](NC(=O)CN1Cc2cc(F)c(F)cc2NC1=O)c1ncc(C#N)cc1F [Compound B358] | 0.13 µM | 0.33 µM | 0.10 µM |  |  | 
Cc1nsc([C@@H](C)NC(=O)CN2Cc3c(ccc(F)c3F)NC2=O)n1 [Compound B359] | 13.87 µM | 100.00 µM | 4.96 µM |  |  | 
C[C@@H](NC(=O)CN1Cc2c(ccc(F)c2F)NC1=O)c1cc2c(cn1)N(C)CCO2 [Compound B360] | 100.00 µM | 9.49 µM | 44.86 µM |  |  | 
C[C@H](NC(=O)CN1Cc2c(ccc(F)c2F)NC1=O)c1cc2c(cn1)N(C)CCO2 [Compound B361] | 100.00 µM | 100.00 µM | 100.00 µM |  |  | 
O=C(CN1Cc2c(ccc(F)c2F)NC1=O)N[C@@H]1COCc2cc(F)cnc21 [Compound B362] | 0.52 µM | 1.04 µM | 100.00 µM |  |  | 
O=C(CN1Cc2c(ccc(F)c2F)NC1=O)N[C@H]1COCc2cc(F)cnc21 [Compound B363] | 100.00 µM | 100.00 µM | 100.00 µM |  |  | 
C[C@@H](NC(=O)CN1Cc2c(ccc(F)c2F)NC1=O)c1cc2c(cn1)OCCN2 [Compound B364] | 100.00 µM | 100.00 µM | 20.41 µM |  |  | 
C[C@H](NC(=O)CN1Cc2c(ccc(F)c2F)NC1=O)c1cc2c(cn1)OCCN2 [Compound B365] | 100.00 µM | 100.00 µM | 100.00 µM |  |  | 
N#Cc1cnc2c(c1)CC[C@H]2NC(=O)CN1C(=O)Nc2cccnc2C12CC2 [Compound N1] |  |  |  | 100 µM | 100 µM | 70.94 µM
N#Cc1cnc2c(c1)CC[C@@H]2NC(=O)CN1C(=O)Nc2cccnc2C12CC2 [Compound N2] |  |  |  | 4.055 µM | 34.26 µM | 17.14 µM
C[C@@H](NC(=O)CN1C(=O)Nc2ccc(C#N)nc2C12CC2)c1ncc(C#N)cc1F [Compound N3] |  |  |  | 18.85 µM | 100 µM | 2.59 µM
C[C@H](NC(=O)CN1C(=O)Nc2ccc(C#N)nc2C12CC2)c1ncc(C#N)cc1F [Compound N4] |  |  |  | 0.1067 µM | 0.474 µM | 0.07 µM
N#Cc1cc(F)c2c(c1)OC[C@H]2NC(=O)CN1Cc2c(ccnc2C(F)(F)F)NC1=O [Compound N5] |  |  |  | 0.0178 µM | 0.1154 µM | 0.07 µM
N#Cc1cc(F)c2c(c1)OC[C@@H]2NC(=O)CN1Cc2c(ccnc2C(F)(F)F)NC1=O [Compound N6] |  |  |  | 2.918 µM | 38.22 µM | 2.82 µM

SMILES | Rabbit Psoas IC25 ([1]; Table 8) | Porcine Ventricle IC25 ([2]; Table 8) | Porcine Atria IC25 ([3]; Table 8) | Rabbit Psoas IC25 ([1]; Table 7) | Porcine Ventricle IC25 ([2]; Table 7) | Porcine Atria IC25 ([3]; Table 7)
N#Cc1nccc2c1CN(CC(=O)N[C@@H]1COc3cc(F)cc(F)c31)C(=O)N2 [Compound N7] |  |  |  | 0.0355 µM | 0.266 µM | 0.11 µM
N#Cc1nccc2c1CN(CC(=O)N[C@H]1COc3cc(F)cc(F)c31)C(=O)N2 [Compound N8] |  |  |  | 0.3271 µM | 13.21 µM | 2.20 µM
O=C(CN1Cc2cnccc2NC1=O)N[C@@H]1COc2cc(F)cc(F)c21 [Compound N10] |  |  |  | 0.4579 µM | 13.44 µM | 0.82 µM
O=C(CN1Cc2cnccc2NC1=O)N[C@H]1COc2cc(F)cc(F)c21 [Compound N11] |  |  |  | 100 µM | 100 µM | 100.00 µM
C[C@@H](NC(=O)CN1C(=O)Nc2ccc(C#N)nc2C12CC2)c1ccc(F)cc1F [Compound N12] |  |  |  | 100 µM | 100 µM | 7.63 µM
C[C@H](NC(=O)CN1C(=O)Nc2ccc(C#N)nc2C12CC2)c1ccc(F)cc1F [Compound N13] |  |  |  | 0.063 µM | 0.8569 µM | 0.07 µM
C[C@@H](NC(=O)CN1C(=O)Nc2ccc(C#N)nc2C12CC2)c1ncc(F)cc1F [Compound N14] |  |  |  | 100 µM | 100 µM | 1.16 µM
C[C@H](NC(=O)CN1C(=O)Nc2ccc(C#N)nc2C12CC2)c1ncc(F)cc1F [Compound N15, 2-{6′-Cyano-2′-oxo-1′H-spiro[cyclopropane-1,4′-pyrido[3,2-d]pyrimidin]-3′-yl}-N-[(1S)-1-(3,5-difluoropyridin-2-yl)ethyl]acetamide] |  |  |  | 0.197 µM | 2.788 µM | 0.07 µM
C[C@@H](NC(=O)CN1C(=O)Nc2cccnc2C12CC2)c1ccc(C#N)cn1 [Compound N16] |  |  |  | 1.645 µM | 100 µM | 0.60 µM
C[C@H](NC(=O)CN1C(=O)Nc2cccnc2C12CC2)c1ccc(C#N)cn1 [Compound N17] |  |  |  | 100 µM | 100 µM | 75.12 µM
O=C(CN1Cc2c(ccnc2C(F)(F)F)NC1=O)N[C@@H]1COc2cc(F)cc(F)c21 [Compound N18] |  |  |  | 0.03098 µM | 1.324 µM | 0.12 µM
O=C(CN1Cc2c(ccnc2C(F)(F)F)NC1=O)N[C@H]1COc2cc(F)cc(F)c21 [Compound N19] |  |  |  | 2.245 µM | 11.46 µM | 2.00 µM
C[C@@H](NC(=O)CN1Cc2cnccc2NC1=O)c1ccc(C#N)cc1F [Compound N20] |  |  |  | 0.1315 µM | 100 µM | 100.00 µM
C[C@H](NC(=O)CN1Cc2cnccc2NC1=O)c1ccc(C#N)cc1F [Compound N21] |  |  |  | 6.632 µM | 13.45 µM | 4.36 µM
C[C@@H](NC(=O)CN1Cc2c(ccnc2C#N)NC1=O)c1ccc(C#N)cc1F [Compound N22] |  |  |  | 0.2583 µM | 100 µM | 100.00 µM
C[C@H](NC(=O)CN1Cc2c(ccnc2C#N)NC1=O)c1ccc(C#N)cc1F [Compound N23] |  |  |  | 0.0165 µM | 0.1625 µM | 0.28 µM
